Assays:
[1] = system: pKAP1 and pH2AX levels in MDA-MB-436 and MDA-MB-468 breast cancer cells; test: pKAP1 and pH2AX immunoblot, Compound B-2 and doxorubicin in MDA-MB-436 and MDA-MB-468 cells; format: cell-based, human; conditions: 1 μM Compound B-2 + 500 nM doxorubicin; at 8 h
Procedure: (§1) Materials and Methods. The human cancer cell lines A549 (CCL-185), DU4475 (HTB-123), MDA-MB-436 (HTB-130), and MDA-MB-468 (HTB-132) were obtained from American Type Culture Collection (ATCC; Manassas, VA). A 10 mM stock solution of Compound B-1 or Compound B-2 was prepared in DMSO and stored at −20° C. Etoposide and doxorubicin were purchased from Sigma-Aldrich (St. Louis, MO).
The A549 human lung cancer cell line was purchased from ATCC and was cultured in DMEM supplemented with 10% fetal bovine serum, 1× non-essential amino acids and 1× Penicillin/Streptomycin (complete medium). Cells were maintained at a subconfluent state by passaging every 2-3 days. Human breast cancer cells lines DU4475, MDA-MB-436, and MDA-MB-468 were purchased from ATCC and cultured in DMEM supplemented with 10% fetal bovine serum, 1× Glutamax and Penicillin/Streptomycin. Cells were maintained at a subconfluent state by passaging every 2-3 days.
Compound B-1 and Compound B-2 used in these experiments were not prepared as a co-crystals.
Breast cancer cell lines grown in 24-well (Costar, catalog #3526) or 6-well (Costar, catalog #3516) tissue culture plates to 70-80% confluence were pre-incubated with 1 μM Compound B-2 or DMSO for 15 min. Doxorubicin was added to a final concentration of either 100 nM or 500 nM from a 1000× stock prepared in DMSO. Cells were then incubated for the indicated amount of time and harvested for analysis.
Cell Lysis and Western Blot Analysis. […]
To determine that enhancement of DNA damage by concurrent treatment of cells with Compound B-2 and doxorubicin was not specific to DU4475 cells, two additional breast cancer cell lines, MDA-MB-436 and MDA-MB-468, were also pre-incubated with 1 μM Compound B-2 for 15 min, followed by addition of 500 nM doxorubicin. Cells were harvested at various time points following doxorubicin addition and analyzed for levels of pKAP1 and pH2AX by immunoblotting.

[2] = system: pKAP1 and pH2AX levels in MDA-MB-468 breast cancer cells; test: pKAP1 and pH2AX immunoblot, doxorubicin pulse (wash-out) with Compound B-2 in MDA-MB-468 cells; format: cell-based, human; conditions: 1 μM Compound B-2 + 500 nM doxorubicin pulse; beginning at 1 h doxorubicin exposure, harvested at 8 h
Procedure: as §1
The A549 human lung cancer cell line was purchased from ATCC and was cultured in DMEM supplemented with 10% fetal bovine serum, 1× non-essential amino acids and 1× Penicillin/Streptomycin (complete medium). Cells were maintained at a subconfluent state by passaging every 2-3 days. Human breast cancer cells lines DU4475, MDA-MB-436, and MDA-MB-468 were purchased from ATCC and cultured in DMEM supplemented with 10% fetal bovine serum, 1× Glutamax and Penicillin/Streptomycin. Cells were maintained at a subconfluent state by passaging every 2-3 days. […]
In order to determine the effect of a pulse of doxorubicin in combination with a DNA-PK inhibitor on pKAP1 and pH2AX levels, which would more closely simulate an in vivo administration of doxorubicin, MDA-MB-468 breast cancer cells were pre-incubated with 1 μM Compound B-2 for 15 min, followed by addition of 500 nM doxorubicin. […] Cells were harvested 8 h from initial doxorubicin exposure, and analyzed for levels of pKAP1 and pH2AX by immunoblotting. […]

## [2H]c1nc(C)nc([2H])c1-c1cc(NC[C@@H](C)c2cccc3c(C(=O)NC)ccnc23)ncn1 [Compound B-2]
[1]
  pH2AX level, max enhancement vs doxorubicin alone: 1.5 fold
  pKAP1 level, max enhancement vs doxorubicin alone: 3.5-4 fold
[2]
  pKAP1 and pH2AX levels vs doxorubicin alone: enhanced levels

From patent US11980633B2, “Method for treating cancer using a combination of DNA-damaging agents and DNA-PK inhibitors” (Vertex Pharmaceuticals Incorporated, priority 2016, dated 2024)
